Results from US8481532B2, “PDE-10 inhibitors” (EnVivo Pharmaceuticals, Inc., priority 2008, dated 2013).
Read-outs that look alike come from different tables or passages of the source.

What was measured:
Human PDE10A1 = Human PDE10A1 (Homo sapiens, UniProt Q9Y233); experiment: hPDE10A1 Enzyme Inhibition ([3H]-cAMP scintillation assay); format: biochemical
Protocol: • hPDE10A1 Enzyme Activity: […] samples of serially diluted Human PDE10A1 enzyme were incubated with 50 μl of [^3H]-cAMP for 20 minutes (at 37° C.). Reactions were carried out in Greiner 96 deep well 1 ml master-block. The enzyme was diluted in 20 mM Tris HCl pH7.4 and [^3H]-cAMP was diluted in 10 mM MgCl2, 40 mM Tris.HCl pH 7.4. The reaction was terminated by denaturing the PDE enzyme (at 70° C.) after which [^3H]-5′-AMP was converted to [^3H]-adenosine by adding 25 μl snake venom nucleotidase and incubating for 10 minutes (at 37° C.). Adenosine, being neutral, was separated from charged cAMP or AMP by the addition of 200 μl Dowex resin. Samples were shaken for 20 minutes then centrifuged for 3 minutes at 2,500 r.p.m. 50 μl of supernatant was removed and added to 200 μl of MicroScint-20 in white plates (Greiner 96-well Optiplate) and shaken for 30 minutes before reading on Perkin Elmer TopCount Scintillation Counter. • hPDE10A1 Enzyme Inhibition: To check inhibition profile 11 μl of serially diluted inhibitor was added to 50 μl of [^3H]-cAMP and 50 μl of diluted Human PDE10A1 and assay was carried out as in the enzyme activity assay. Data was analysed using Prism software (GraphPad Inc).

rats = details: cited from earlier work
[1] = Human PDE10A1, [3H]-cAMP substrate, 20 minutes at 37° C., read-out: hPDE10A1 IC50 Band

Human PDE10A1, sequence (Q9Y233 1-779 isoform Q9Y233-1): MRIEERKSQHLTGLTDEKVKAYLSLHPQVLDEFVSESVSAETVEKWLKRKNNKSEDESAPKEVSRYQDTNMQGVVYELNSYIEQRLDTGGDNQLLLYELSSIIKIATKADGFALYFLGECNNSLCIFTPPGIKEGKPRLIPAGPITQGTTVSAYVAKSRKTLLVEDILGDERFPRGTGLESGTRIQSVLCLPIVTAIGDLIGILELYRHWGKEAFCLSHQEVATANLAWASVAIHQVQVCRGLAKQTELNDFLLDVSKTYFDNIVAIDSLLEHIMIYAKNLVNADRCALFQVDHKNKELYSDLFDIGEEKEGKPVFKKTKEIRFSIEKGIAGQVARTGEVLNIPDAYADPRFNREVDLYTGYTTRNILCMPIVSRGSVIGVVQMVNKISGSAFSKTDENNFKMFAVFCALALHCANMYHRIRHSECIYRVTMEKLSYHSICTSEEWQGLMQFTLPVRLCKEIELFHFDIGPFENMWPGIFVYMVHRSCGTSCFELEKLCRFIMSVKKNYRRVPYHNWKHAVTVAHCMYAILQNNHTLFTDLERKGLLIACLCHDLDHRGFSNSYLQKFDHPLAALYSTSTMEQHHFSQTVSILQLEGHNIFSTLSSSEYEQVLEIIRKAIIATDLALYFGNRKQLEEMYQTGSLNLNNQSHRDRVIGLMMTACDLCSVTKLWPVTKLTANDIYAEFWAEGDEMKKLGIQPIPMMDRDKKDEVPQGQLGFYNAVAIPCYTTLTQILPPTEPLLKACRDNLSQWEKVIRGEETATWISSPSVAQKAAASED

With `CC(C)(C)c1ccc(C2CC2C(=O)N/N=C/c2cccc3cnccc23)cc1` (stereo not shown) [Example 122, (E)-2-(4-tert-butylphenyl)-N′-(isoquinolin-5-ylmethylene) cyclopropanecarbohydrazide] the IC50 (Human PDE10A1) was < 200 nM.
In the case of `COc1ccc(Cc2nccc3cc(OC)c(OC)cc23)cc1OC` [papaverine], the apomorphine induced stereotypies (rats) is given as “reduces”, the haloperidol induced catalepsy (rats) is given as “increases” and the “rat brain dopamine levels” value (rats) is given as “reduces”.
With `CN(/N=C/c1cccc2cnccc12)C(=O)C1CC1c1ccc(C(C)(C)C)cc1` (stereo not shown) [Example 198, (E)-2-(4-tert-butylphenyl)-N′-(isoquinolin-5-ylmethylene)-N-methylcyclopropanecarbohydrazide] the IC50 (Human PDE10A1; [1]) was < 200 nM.
With `C/C(=N\NC(=O)C1CC1c1ccc(C(C)(C)C)cc1)c1cccc2cnccc12` (stereo not shown) [Example 197, (E)-2-(4-tert-butylphenyl)-N′-(1-(isoquinolin-5-yl)ethylidene)cyclopropanecarbohydrazide] the IC50 (Human PDE10A1; [1]) was < 1000 nM.
With `O=C(N/N=C/c1cccc2cnccc12)C1CC1c1ccc(-c2ccccc2)cc1` (stereo not shown) [Example 196, (E)-2-(biphenyl-4-yl)-N′-(isoquinolin-5-ylmethylene)cyclopropanecarbohydrazide] the IC50 (Human PDE10A1; [1]) was < 200 nM.
